Patent US10689381B2 (priority 2017, dated 2020)
Like-named read-outs stand apart in the source and are kept apart here.

Columns and labels:
[1] = test system: HCT116; assay: cells; type: cell-based, human; conditions: for IC50: read-out: IC50 HCT116; for potency relative to vinblastine (more potent): vinblastine-sensitive cell lines
Experimental: (§1) A population of cells (>1×10^6 cells/mL as determined with a hemocytometer) was diluted with Dulbecco's Modified Eagle Medium (DMEM, Gibco) containing 10% fetal bovine serum (FBS, Gibco) to give a final concentration of 30,000 cells/mL. To each well of a 96-well plate (Corning® Costar®) was added 100 μL of the cell media solution with a multichannel pipet.
(§2) The test compounds were then added to the plate as follows: test compounds were diluted in DMSO to a concentration of 1 mM. 10-Fold serial dilutions in DMSO were next performed on a separate 96-well plate. Fresh culture media (100 μL) was added to each well of cells resulting in 200 μL of medium per well followed by 2 μL of each test agent. Compounds were tested in duplicate (n=2-8 times) at six concentrations between 0-1000 nM or 0-10000 nM. Following the addition of compound, cultures were incubated for an additional 72 hours.
(§3) The plates were incubated at 37° C. for 5 minutes (L1210) or 15 min (HCT116 and HCT116/VM46).

[2] = test system: L1210; assay: cells; type: cell-based, mouse
Experimental: as §1, §2, §3

Compound | IC50 ([1]; Table 1) [nM] | IC50 ([2]; Table 1) [nM] | IC50 ([1]; Table 2) [nM] | IC50 ([2]; Table 2) [nM] | further results
CCC1(NC(=O)C2CCc3ccccc3C2)CC2CN(CCc3c([nH]c4ccccc34)C(C(=O)OC)(c3cc4c(cc3OC)N(C)C3C(O)(C(=O)OC)C(OC(C)=O)C5(CC)C=CCN6CCC43C65)C2)C1 (mixture of isomers) [Compound 122] |  |  |  |  | IC50 ([1]; Table 4): 580 nM; IC50 ([2]; Table 4): 420 nM
CCC(=O)NC1(CC)CC2CN(CCc3c([nH]c4ccccc34)C(C(=O)OC)(c3cc4c(cc3OC)N(C)C3C(O)(C(=O)OC)C(OC(C)=O)C5(CC)C=CCN6CCC43C65)C2)C1 (stereo not shown) [Compound 12] | 60 | 60 |  |  | 
CC[C@]1(NC(=O)C(C)C)C[C@H]2CN(CCc3c([nH]c4ccccc34)[C@@](C(=O)OC)(c3cc4c(cc3OC)N(C)[C@H]3[C@@](O)(C(=O)OC)[C@H](OC(C)=O)[C@]5(CC)C=CCN6CC[C@]43[C@@H]65)C2)C1 [Compound 13] | 90 | 70 |  |  | 
CC[C@]1(NC(=O)C(C)(C)C)C[C@H]2CN(CCc3c([nH]c4ccccc34)[C@@](C(=O)OC)(c3cc4c(cc3OC)N(C)[C@H]3[C@@](O)(C(=O)OC)[C@H](OC(C)=O)[C@]5(CC)C=CCN6CC[C@]43[C@@H]65)C2)C1 [Compound 14] | 3600 | 2800 |  |  | 
CCCCCC(=O)N[C@@]1(CC)C[C@H]2CN(CCc3c([nH]c4ccccc34)[C@@](C(=O)OC)(c3cc4c(cc3OC)N(C)[C@H]3[C@@](O)(C(=O)OC)[C@H](OC(C)=O)[C@]5(CC)C=CCN6CC[C@]43[C@@H]65)C2)C1 [Compound 15] | 40 | 55 |  |  | 
CCC1(NC(=O)C2CC2)CC2CN(CCc3c([nH]c4ccccc34)C(C(=O)OC)(c3cc4c(cc3OC)N(C)C3C(O)(C(=O)OC)C(OC(C)=O)C5(CC)C=CCN6CCC43C65)C2)C1 (stereo not shown) [Compound 17] | 6.1 | 5.5 |  |  | 
CC[C@]1(NC(=O)C2CCCC2)C[C@H]2CN(CCc3c([nH]c4ccccc34)[C@@](C(=O)OC)(c3cc4c(cc3OC)N(C)[C@H]3[C@@](O)(C(=O)OC)[C@H](OC(C)=O)[C@]5(CC)C=CCN6CC[C@]43[C@@H]65)C2)C1 [Compound 19] | 25 | 30 |  |  | 
CC[C@]1(NC(=O)C2CCCCC2)C[C@H]2CN(CCc3c([nH]c4ccccc34)[C@@](C(=O)OC)(c3cc4c(cc3OC)N(C)[C@H]3[C@@](O)(C(=O)OC)[C@H](OC(C)=O)[C@]5(CC)C=CCN6CC[C@]43[C@@H]65)C2)C1 [Compound 20] | 70 | 55 |  |  | 
CCC1(NC(=O)Cc2ccccc2)CC2CN(CCc3c([nH]c4ccccc34)C(C(=O)OC)(c3cc4c(cc3OC)N(C)C3C(O)(C(=O)OC)C(OC(C)=O)C5(CC)C=CCN6CCC43C65)C2)C1 (stereo not shown) [Compound 21] | 55 | 55 |  |  | 
CC[C@]1(NC(=O)C(c2ccccc2)c2ccccc2)C[C@H]2CN(CCc3c([nH]c4ccccc34)[C@@](C(=O)OC)(c3cc4c(cc3OC)N(C)[C@H]3[C@@](O)(C(=O)OC)[C@H](OC(C)=O)[C@]5(CC)C=CCN6CC[C@]43[C@@H]65)C2)C1 [Compound 22] | 3800 | 760 |  |  | 
C=CC(=O)N[C@@]1(CC)C[C@H]2CN(CCc3c([nH]c4ccccc34)[C@@](C(=O)OC)(c3cc4c(cc3OC)N(C)[C@H]3[C@@](O)(C(=O)OC)[C@H](OC(C)=O)[C@]5(CC)C=CCN6CC[C@]43[C@@H]65)C2)C1 [Compound 23] | 6 | 7 |  |  | IC50 ([1]; Table 3): 6 nM; IC50 ([2]; Table 3): 7 nM
CCC1(NC(=O)c2ccc(C)cc2)CC2CN(CCc3c([nH]c4ccccc34)C(C(=O)OC)(c3cc4c(cc3OC)N(C)C3C(O)(C(=O)OC)C(OC(C)=O)C5(CC)C=CCN6CCC43C65)C2)C1 (stereo not shown) [Compound 25] |  |  | 0.45 | 0.5 | potency relative to vinblastine (more potent) [1]: 10 fold
CC[C@]1(NC(=O)c2cccc(C)c2)C[C@H]2CN(CCc3c([nH]c4ccccc34)[C@@](C(=O)OC)(c3cc4c(cc3OC)N(C)[C@H]3[C@@](O)(C(=O)OC)[C@H](OC(C)=O)[C@]5(CC)C=CCN6CC[C@]43[C@@H]65)C2)C1 [Compound 26] |  |  | 0.7 | 0.5 | potency relative to vinblastine (more potent) [1]: 10 fold
CC[C@]1(NC(=O)c2ccccc2C)C[C@H]2CN(CCc3c([nH]c4ccccc34)[C@@](C(=O)OC)(c3cc4c(cc3OC)N(C)[C@H]3[C@@](O)(C(=O)OC)[C@H](OC(C)=O)[C@]5(CC)C=CCN6CC[C@]43[C@@H]65)C2)C1 [Compound 27] |  |  | 50 | 55 | 
CC[C@]1(NC(=O)c2cc(C)cc(C)c2)C[C@H]2CN(CCc3c([nH]c4ccccc34)[C@@](C(=O)OC)(c3cc4c(cc3OC)N(C)[C@H]3[C@@](O)(C(=O)OC)[C@H](OC(C)=O)[C@]5(CC)C=CCN6CC[C@]43[C@@H]65)C2)C1 [Compound 29] |  |  | 6 | 5.4 | 
CCc1ccc(C(=O)NC2(CC)CC3CN(CCc4c([nH]c5ccccc45)C(C(=O)OC)(c4cc5c(cc4OC)N(C)C4C(O)(C(=O)OC)C(OC(C)=O)C6(CC)C=CCN7CCC54C76)C3)C2)cc1 (stereo not shown) [Compound 30] |  |  | 0.7 | 0.65 | potency relative to vinblastine (more potent) [1]: 10 fold

Compound | IC50 ([1]; Table 1) [nM] | IC50 ([2]; Table 1) [nM] | IC50 ([1]; Table 2) [nM] | IC50 ([2]; Table 2) [nM] | further results
CCc1cc(CC)cc(C(=O)N[C@@]2(CC)C[C@H]3CN(CCc4c([nH]c5ccccc45)[C@@](C(=O)OC)(c4cc5c(cc4OC)N(C)[C@H]4[C@@](O)(C(=O)OC)[C@H](OC(C)=O)[C@]6(CC)C=CCN7CC[C@]54[C@@H]76)C3)C2)c1 [Compound 31] |  |  | 6.4 | 4.2 | 
CC[C@]1(NC(=O)c2ccc(C(C)C)cc2)C[C@H]2CN(CCc3c([nH]c4ccccc34)[C@@](C(=O)OC)(c3cc4c(cc3OC)N(C)[C@H]3[C@@](O)(C(=O)OC)[C@H](OC(C)=O)[C@]5(CC)C=CCN6CC[C@]43[C@@H]65)C2)C1 [Compound 32] |  |  | 6.4 | 5.4 | 
CCC1(NC(=O)c2cccc(C(C)C)c2)CC2CN(CCc3c([nH]c4ccccc34)C(C(=O)OC)(c3cc4c(cc3OC)N(C)C3C(O)(C(=O)OC)C(OC(C)=O)C5(CC)C=CCN6CCC43C65)C2)C1 (stereo not shown) [Compound 33] |  |  | 8.7 | 7.5 | 
CCCc1ccc(C(=O)NC2(CC)CC3CN(CCc4c([nH]c5ccccc45)C(C(=O)OC)(c4cc5c(cc4OC)N(C)C4C(O)(C(=O)OC)C(OC(C)=O)C6(CC)C=CCN7CCC54C76)C3)C2)cc1 (stereo not shown) [Compound 34] |  |  | 4.8 | 4.3 | 
CCCCc1ccc(C(=O)N[C@@]2(CC)C[C@H]3CN(CCc4c([nH]c5ccccc45)[C@@](C(=O)OC)(c4cc5c(cc4OC)N(C)[C@H]4[C@@](O)(C(=O)OC)[C@H](OC(C)=O)[C@]6(CC)C=CCN7CC[C@]54[C@@H]76)C3)C2)cc1 [Compound 35] |  |  | 20 | 30 | 
CC[C@]1(NC(=O)c2ccc(CC(C)C)cc2)C[C@H]2CN(CCc3c([nH]c4ccccc34)[C@@](C(=O)OC)(c3cc4c(cc3OC)N(C)[C@H]3[C@@](O)(C(=O)OC)[C@H](OC(C)=O)[C@]5(CC)C=CCN6CC[C@]43[C@@H]65)C2)C1 [Compound 36] |  |  | 10 | 25 | 
CCC(C)c1ccc(C(=O)N[C@@]2(CC)C[C@H]3CN(CCc4c([nH]c5ccccc45)[C@@](C(=O)OC)(c4cc5c(cc4OC)N(C)[C@H]4[C@@](O)(C(=O)OC)[C@H](OC(C)=O)[C@]6(CC)C=CCN7CC[C@]54[C@@H]76)C3)C2)cc1 (stereo partly shown) [Compound 37] |  |  | 15 | 25 | 
CC[C@]1(NC(=O)c2ccc(C(C)(C)C)cc2)C[C@H]2CN(CCc3c([nH]c4ccccc34)[C@@](C(=O)OC)(c3cc4c(cc3OC)N(C)[C@H]3[C@@](O)(C(=O)OC)[C@H](OC(C)=O)[C@]5(CC)C=CCN6CC[C@]43[C@@H]65)C2)C1 [Compound 38] |  |  | 1.9 | 0.6 | 
CCC1(NC(=O)c2ccc(C(F)(F)F)cc2)CC2CN(CCc3c([nH]c4ccccc34)C(C(=O)OC)(c3cc4c(cc3OC)N(C)C3C(O)(C(=O)OC)C(OC(C)=O)C5(CC)C=CCN6CCC43C65)C2)C1 (stereo not shown) [Compound 39] |  |  | 3.3 | 4.3 | 
CC[C@]1(NC(=O)c2cccc(C(F)(F)F)c2)C[C@H]2CN(CCc3c([nH]c4ccccc34)[C@@](C(=O)OC)(c3cc4c(cc3OC)N(C)[C@H]3[C@@](O)(C(=O)OC)[C@H](OC(C)=O)[C@]5(CC)C=CCN6CC[C@]43[C@@H]65)C2)C1 [Compound 40] |  |  | 6.4 | 6.2 | 
CCC1(NC(=O)c2ccccc2C(F)(F)F)CC2CN(CCc3c([nH]c4ccccc34)C(C(=O)OC)(c3cc4c(cc3OC)N(C)C3C(O)(C(=O)OC)C(OC(C)=O)C5(CC)C=CCN6CCC43C65)C2)C1 (stereo not shown) [Compound 41] |  |  | 60 | 45 | 
CCC1(NC(=O)c2ccc(-c3ccccc3)cc2)CC2CN(CCc3c([nH]c4ccccc34)C(C(=O)OC)(c3cc4c(cc3OC)N(C)C3C(O)(C(=O)OC)C(OC(C)=O)C5(CC)C=CCN6CCC43C65)C2)C1 (stereo not shown) [Compound 42] |  |  | 5.4 | 5.5 | 
CCC1(NC(=O)c2ccc(C3CCCCC3)cc2)CC2CN(CCc3c([nH]c4ccccc34)C(C(=O)OC)(c3cc4c(cc3OC)N(C)C3C(O)(C(=O)OC)C(OC(C)=O)C5(CC)C=CCN6CCC43C65)C2)C1 (stereo not shown) [Compound 43] |  |  | 30 | 40 | 
CC[C@]1(NC(=O)c2ccc(F)cc2)C[C@H]2CN(CCc3c([nH]c4ccccc34)[C@@](C(=O)OC)(c3cc4c(cc3OC)N(C)[C@H]3[C@@](O)(C(=O)OC)[C@H](OC(C)=O)[C@]5(CC)C=CCN6CC[C@]43[C@@H]65)C2)C1 [Compound 44] |  |  | 1.4 | 1.8 | 
CC[C@]1(NC(=O)c2cccc(F)c2)C[C@H]2CN(CCc3c([nH]c4ccccc34)[C@@](C(=O)OC)(c3cc4c(cc3OC)N(C)[C@H]3[C@@](O)(C(=O)OC)[C@H](OC(C)=O)[C@]5(CC)C=CCN6CC[C@]43[C@@H]65)C2)C1 [Compound 45] |  |  | 5.3 | 5.7 | 
